The record followed here is US8759535B2, “Substituted fused imidazole derivatives, pharmaceutical compositions, and methods of use thereof” (High Point Pharmaceuticals, LLC, priority 2010, dated 2014).

Structures are written as SMILES. Counter-ions that a name gives are not always drawn.

One experiment has as its system HMOX1. The experiment in a line: HMOX1 Protein Assay (immunostaining of HO-1 in NHLF cells, GE InCell 1000). It is filed as cell-based. As to conditions: Homo sapiens, fold change above DMSO treated cells, 3 μM compound (asterisk), 16 h. Summed up:
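Fold induction of HO-1 over vehicle, normally at 5 μM compound (asterisk marks 3 μM), in 0.8% DMSO medium. Normal human lung fibroblasts were treated 16 h, then paraformaldehyde-fixed, anti-HO-1/Alexa 488 stained with Hoechst, and read by high-content imaging.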
As a reminder, the fold induction is the signal under treatment as a multiple of the control signal. High values mean a large rise in signal, low ones little rise in signal. Take `Cn1c(Nc2nc3ccc(Cl)cc3s2)nc2cc(C(=O)NCCCCN)ccc21` [Example 347, 2-(6-Chloro-benzothiazol-2-ylamino)-1-methyl-1H-benzoimidazole-5-carboxylic acid (4-amino-butyl)-amide hydrochloride]: the fold induction at 3 µM was found to be 15.3. Still for that read-out and setting: for `CNC(=O)CNC(=O)c1ccc2c(c1)nc(Nc1nc3ccc(Cl)cc3s1)n2C` [Example 380, 2-(6-Chloro-benzothiazol-2-ylamino)-1-methyl-1H-benzoimidazole-5-carboxylic acid methylcarbamoylmethyl-amide] the value was 30; for `C[C@@H](O)CNC(=O)c1ccc2c(c1)nc(Nc1nc3ccc(C(F)(F)F)cc3s1)n2C` [Example 205, 1-Methyl-2-(6-trifluoromethyl-benzothiazol-2-ylamino)-1H-benzoimidazole-5-carboxylic acid ((R)-2-hydroxy-propyl)-amide], 33.1; for `CN1CCN(CCCNC(=O)c2ccc3c(c2)nc(Nc2nc4ccc(OC(F)(F)F)cc4s2)n3C)CC1` [Example 355, 1-Methyl-2-(6-trifluoromethoxy-benzothiazol-2-ylamino)-1H-benzoimidazole-5-carboxylic acid [3-(4-methyl-piperazin-1-yl)-propyl]-amide], 26.

The compound `C[C@@H](CO)CCNC(=O)c1ccc2c(c1)nc(Nc1nc3ccc(Cl)cc3s1)n2C` [Example 224, 2-(6-Chloro-benzothiazol-2-ylamino)-1-methyl-1H-benzoimidazole-5-carboxylic acid ((R)-4-hydroxy-3-methyl-butyl)-amide] had a fold induction at 3 µM of 15.5. Still for that read-out and setting: for `Cn1c(Nc2nc3ccc(Cl)cc3s2)nc2cc(C(=O)NCCOCCN)ccc21` [Example 269, 2-(6-Chloro-benzothiazol-2-ylamino)-1-methyl-1H-benzoimidazole-5-carboxylic acid [2-(2-amino-ethoxy)-ethyl]-amide] the value was 19.9; for `C[C@H](CO)OCCNC(=O)c1ccc2c(c1)nc(Nc1nc3ccc(OC(F)(F)F)cc3s1)n2C` [Example 242, 1-Methyl-2-(6-trifluoromethoxy-benzothiazol-2-ylamino)-1H-benzoimidazole-5-carboxylic acid [2-((R)-2-hydroxy-1-methyl-ethoxy)-ethyl]-amide], 28.1.

Still in this experiment, the particulars now being: Homo sapiens, fold change above DMSO treated cells, 5 μM compound, 16 h.
`Cn1c(Nc2nc3ccc(OC(F)(F)F)cc3s2)nc2cc(C(=O)NCCOCCNS(C)(=O)=O)ccc21` [Example 276, 1-Methyl-2-(6-trifluoromethoxy-benzothiazol-2-ylamino)-1H-benzoimidazole-5-carboxylic acid [2-(2-methanesulfonylamino-ethoxy)-ethyl]-amide] displayed a fold induction at 5 µM of 61.2.

Take `CCS(=O)(=O)CCNC(=O)c1ccc2c(c1)nc(Nc1nc3ccc(OC(F)(F)F)cc3s1)n2C` [Example 109, 1-Methyl-2-(6-trifluoromethoxy-benzothiazol-2-ylamino)-1H-benzimidazole-5-carboxylic acid (2-ethanesulfonyl-ethyl)-amide]: the fold induction at 5 µM came to 20.9. The same measure, in the same setting: for `Cn1c(Nc2nc3ccc(Cl)cc3s2)nc2cc(C(=O)NCC3CCN(CCO)CC3)ccc21` [Example 303, 2-(6-Chloro-benzothiazol-2-ylamino)-1-methyl-1H-benzoimidazole-5-carboxylic acid [1-(2-hydroxy-ethyl)-piperidin-4-ylmethyl]-amide] the value was 25.6; for `CCOCCNC(=O)c1ccc2c(c1)nc(Nc1nc3cc(F)c(F)cc3s1)n2C` [Example 87, 2-(5,6-Difluoro-benzothiazol-2-ylamino)-1-methyl-1H-benzoimidazole-5-carboxylic acid (2-ethoxy-ethyl)-amide], 12.1; for `Cn1c(Nc2nc3ccc(Cl)cc3s2)nc2cc(C(=O)O)ccc21` [Example 29, 2-(6-Chloro-benzothiazol-2-ylamino)-1-methyl-1H-benzoimidazole-5-carboxylic acid], 13.9. Same read-out and setting: for `CC(=O)NCCNC(=O)c1ccc2c(c1)nc(Nc1nc3ccc(OC(F)(F)F)cc3s1)n2C` [Example 100, 1-Methyl-2-(6-trifluoromethoxy-benzothiazol-2-ylamino)-1H-benzoimidazole-5-carboxylic acid (2-acetylamino-ethyl)-amide] the value was 25.9; for `Cn1c(Nc2nc3ccc(OC(F)(F)F)cc3s2)nc2cc(C(=O)NCCN3CCCCC3)ccc21` [Example 333, 1-Methyl-2-(6-trifluoromethoxy-benzothiazol-2-ylamino)-1H-benzoimidazole-5-carboxylic acid (2-piperidin-1-yl-ethyl)-amide], 14.5. The same measure, in the same setting: for `COC(=O)CCNC(=O)c1ccc2c(c1)nc(Nc1nc3ccc(OC(F)(F)F)cc3s1)n2C` [Example 97, 3-{[1-Methyl-2-(6-trifluoromethoxy-benzothiazol-2-ylamino)-1H-benzoimidazole-5-carbonyl]-amino}-propionic acid methyl ester] the value was 19.2. Compound `CN(C)C(=O)CNC(=O)c1cc2nc(Nc3nc4ccc(OC(F)(F)F)cc4s3)n(C)c2cc1F` [Example 58, 6-Fluoro-1-methyl-2-(6-trifluoromethoxy-benzothiazol-2-ylamino)-1H-benzoimidazole-5-carboxylic acid dimethylcarbamoylmethyl-amide] yielded a fold induction at 5 µM of 32.8. The same measure, in the same setting: for `COc1cc2c(cc1C(=O)NCC(=O)N(C)C)nc(Nc1nc3ccc(OC(F)(F)F)cc3s1)n2C` [Example 63, 6-Methoxy-1-methyl-2-(6-trifluoromethoxy-benzothiazol-2-ylamino)-1H-benzoimidazole-5-carboxylic acid dimethylcarbamoylmethyl-amide] the value was 9.8; for `CN(C)N(C)C(=O)c1ccc2c(c1)nc(Nc1nc3ccc(OC(F)(F)F)cc3s1)n2C` [Example 106, 1-Methyl-2-(6-trifluoromethoxy-benzothiazol-2-ylamino)-1H-benzimidazole-5-carboxylic acid trimethylhydrazide], 23.8; for `CN(C)[C@@H]1CCN(C(=O)CNC(=O)c2ccc3c(c2)nc(Nc2nc4ccc(OC(F)(F)F)cc4s2)n3C)C1` [Example 415, 1-Methyl-2-(6-trifluoromethoxy-benzothiazol-2-ylamino)-1H-benzoimidazole-5-carboxylic acid [2-((R)-3-dimethylamino-pyrrolidin-1-yl)-2-oxo-ethyl]-amide], 74.8. Still for that read-out and setting: for `CN1CCC[C@@H](NC(=O)CNC(=O)c2ccc3c(c2)nc(Nc2nc4ccc(Cl)cc4s2)n3C)C1` [Example 388, 2-(6-Chloro-benzothiazol-2-ylamino)-1-methyl-1H-benzoimidazole-5-carboxylic acid [((R)-1-methyl-piperidin-3-ylcarbamoyl)-methyl]-amide] the value was 22; for `Cn1c(Nc2nc3ccc(OC(F)(F)F)cc3s2)nc2cc(C(=O)N3CCCC3)ccc21` [Example 7, [1-Methyl-2-(6-trifluoromethoxy-benzothiazol-2-ylamino)-1H-benzoimidazol-5-yl]-pyrrolidin-1-yl-methanone], 5.4. Same read-out and setting: for `Cn1c(Nc2nc3ccc(OC(F)(F)F)cc3s2)nc2cc(C(=O)NCCOCCO)ccc21` [Example 46, 1-Methyl-2-(6-trifluoromethoxy-benzothiazol-2-ylamino)-1H-benzoimidazole-5-carboxylic acid [2-(2-hydroxy-ethoxy)-ethyl]-amide] the value was 17.9.

Compound `Cn1c(Nc2nc3ccc(OC(F)(F)F)cc3s2)nc2cc(C(=O)NC3CCCN(C(=O)OC(C)(C)C)C3)ccc21` (centres unmarked) [Example 94, 3-{[1-Methyl-2-(6-trifluoromethoxy-benzothiazol-2-ylamino)-1H-benzoimidazole-5-carbonyl]-amino}-piperidine-1-carboxylic acid tert-butyl ester] gave a fold induction at 5 µM of 1.2.

As for `CCNC(=O)c1ccc2c(c1)nc(Nc1nc3ccc(C(F)(F)F)cc3s1)n2CC` [Example 181, 1-Ethyl-2-(6-trifluoromethyl-benzothiazol-2-ylamino)-1H-benzoimidazole-5-carboxylic acid ethylamide], the fold induction at 5 µM is 23.

The compound `Cn1c(Nc2nc3ccc(OC(F)(F)F)cc3s2)nc2cc(C(=O)NCC(=O)N3CCOCC3)cnc21` [Example 420, 3-Methyl-2-(6-trifluoromethoxy-benzothiazol-2-ylamino)-3H-imidazo[4,5-b]pyridine-6-carboxylic acid (2-morpholin-4-yl-2-oxo-ethyl)-amide] yielded a fold induction at 5 µM of 33. `CCNC(=O)c1ccc2c(c1)nc(Nc1nc3ccc(Cl)cc3s1)n2CC` [Example 175, 2-(6-Chloro-benzothiazol-2-ylamino)-1-ethyl-1H-benzoimidazole-5-carboxylic acid ethylamide] yielded a fold induction at 5 µM of 28.7. As for `CNC(=O)c1ccc2c(c1)nc(Nc1nc3ccc(Cl)cc3s1)n2C` [Example 88, 2-(6-Chloro-benzothiazol-2-ylamino)-1-methyl-1H-benzoimidazole-5-carboxylic acid methylamide], the fold induction at 5 µM was 13. The same measure, in the same setting: for `Cn1c(Nc2nc3ccc(OC(F)(F)F)cc3s2)nc2cc(C(=O)NCC(=O)N3CCCC(O)C3)ccc21` (centres unmarked) [Example 431, 1-Methyl-2-(6-trifluoromethoxy-benzothiazol-2-ylamino)-1H-benzoimidazole-5-carboxylic acid [2-(3-hydroxy-piperidin-1-yl)-2-oxo-ethyl]-amide] the value was 49.4; for `COCCNC(=O)c1ccc2c(c1)nc(Nc1nc3ccc(OC(F)(F)F)cc3s1)n2CCF` [Example 171, 1-(2-Fluoro-ethyl)-2-(6-trifluoromethoxy-benzothiazol-2-ylamino)-1H-benzoimidazole-5-carboxylic acid (2-methoxy-ethyl)-amide], 22.8.
